These results are taken from publication PMC4854767 (Clinical cancer research : an official journal of the …, 2016).

Data set [1] relates to MCF-7 cells. Put plainly: Sulforhodamine B. The class given is cell-based, human.
A short description of data set [2]: GDC-0941 intratumor pharmacokinetics in mice bearing MCF-7 xenografts. The class given is in vivo. The following applies: for time of peak intratumor concentration: fulv pretreatment.
For data set [3], the system named is MCF-7 tumors. Put plainly: MCF-7 xenograft tumor volume study. The class given is in vivo, mice.
Data set [4] relates to MCF-7 cells. Put plainly: Caspase-3/7-activatable luciferase reporter in MCF-7 cells. The class given is cell-based, human. The conditions noted are these: 1 µM fulv for 2 d before 1 µM GDC-0941 for 12, 24 or 36 h, combination.
A further data set has as its system ZR75-1 cells. Put plainly: Caspase-3/7-activatable luciferase reporter in ZR75-1 cells. The conditions noted are these: 1 µM fulv for 2 d before 1 µM GDC-0941 for 12 or 24 h, combination. The class given is cell-based, human. Background: In a reporter assay the amount or activity of a reporter protein is the signal.
The subject of data set [5] is MCF-7 tumors. The conditions noted are these: for peak apoptosis, tumor cells (TUNEL): in combination with fulv.
A further data set can be described thus: in vivo. The following applies: NOD-scid/IL2Rγ−/− (NSG; NOD.Cg-Prkdcscid Il2rgtm1Wjl/SzJ), mouse, plasma, po, 800 mg/kg.
The nature of data set [6]: GDC-0941 plasma pharmacokinetics in mice.
The test system of data set [7] is HCI-003 patient-derived breast cancer xenografts. Put plainly: HCI-003 patient-derived xenograft tumor volume study. The class given is in vivo, mice. The conditions noted are these: fulv alone; HCI-003 xenografts. (A xenograft is tissue or cells of one species grown in another, often human tumour cells in immunodeficient mice.)
Data set [8] relates to chronic eosinophilic leukemia. The conditions noted are these: weekly dosing; cited from earlier work.
Where [9] appears, read: low-dose (100 mg/kg), single dose.

Like-named read-outs stand apart in the source and are kept apart here. Where only a bound is given, the exact number is not on record here.

What is called Tmax is the time at which the peak concentration occurs. Regarding `CS(=O)(=O)N1CCN(Cc2cc3nc(-c4cccc5[nH]ncc45)nc(N4CCOCC4)c3s2)CC1` [GDC-0941], in the data set on MCF-7 cells [1] (MCF-7 cells, GDC-0941 ≤0.25 µM), the “duration of exposure required to appreciably decrease viability” value is on record as not below 24 h. In addition, the growth inhibition entry with MCF-7 cells [1] (MCF-7 cells, continuous exposure to 1–2 µM GDC-0941) is given as “near-complete growth inhibition”. Moreover, the “time until intratumor concentration below the detectable limit” value in data set [2] (high-dose (800 mg/kg)) is recorded as not above 72 h. The “time of peak intratumor concentration” value in data set [2] (high-dose (800 mg/kg)) came out at 9 h; in [2] (setting [9]) it was 9 h; in [2] (two low-dose treatments (100 mg/kg at 0 and 12 h)) it was 21 h. In addition, the “time at which drug was undetectable in tumor” value in data set [2] (low-dose (100 mg/kg) with a second dose at 12 h) was determined as 36 h; in data set [2] (setting [9]) it was 18 h. Further, in the data set on MCF-7 tumors [3] (combination of fulv and GDC-0941, regardless of dose/schedule, MCF-7 tumors), the tumor response result is “near-complete tumor regression in most cases”. In the data set with MCF-7 tumors [3] (single-agent GDC-0941, different doses/schedules), the body weight result is given as “without notable loss of body weight”. Further, the tumor growth entry in the data set with MCF-7 tumors [3] (single-agent GDC-0941, different doses/schedules, MCF-7 tumors 500–1,000 mm^3) is recorded as “only slowed tumor growth”. Moreover, the caspase-3/7 reporter activity entry in the data set on MCF-7 cells [4] and with ZR75-1 cells was “increased caspase-3/7 reporter activity compared to either agent alone” in each case. Besides, the “maintained apoptosis (TUNEL)” value in the data set with MCF-7 tumors [5] (fulv plus bi-daily low-dose GDC-0941 (3 d on, 4 d off), until 72 h) was ~ 10%. Further, the “apoptosis (TUNEL)” value in the data set with MCF-7 tumors [5] (fulv plus daily low-dose GDC-0941, maintained for 72 h) is reported as 8–10%. The “peak apoptosis, tumor cells (TUNEL)” value worked out at 6.7% in the data set on MCF-7 tumors [5] (one low dose (100 mg/kg) GDC-0941, at 24 h); 30.1% in the data set with MCF-7 tumors [5] (single high-dose (800 mg/kg) GDC-0941, at 48 h); 15.9% in the data set with MCF-7 tumors [5] (two low doses (100 mg/kg at 0 and 12 h) GDC-0941, at 24 h). Further, in “in vivo”, the Tmax was in the range of 15 to 30 min. The “time until plasma concentration below the limit of detection” value in data set [6] (100 mg/kg) is listed as not above 24 h. Also, the “plasma concentration in plateau phase” value in [6] (100 mg/kg, plateau after 1 h, maintained for 8 h) was in the range of 6.8 to 10.7 µM; in [6] (800 mg/kg, plateau maintained through 24 h) it was 7.9 to 15 µM. In addition, in data set [6] (800 mg/kg), the “time until plasma concentration below detectable limits” value is on record as not above 72 h.
Turning to `C[C@]12CC[C@@H]3c4ccc(O)cc4C[C@@H](CCCCCCCCC[S+]([O-])CCCC(F)(F)C(F)(F)F)[C@H]3[C@@H]1CC[C@@H]2O` (stereo partly drawn) [fulv], in the data set on MCF-7 cells [1] (single-agent fulv (1 µM)), the “growth of MCF-7 cells” value is “effectively inhibited growth”. The tumor response entry in the data set with MCF-7 tumors [3] (fulv alone, larger MCF-7 tumors (500–1,000 mm^3)) was “generally unresponsive”. In data set [7], the tumor growth entry was “did not affect tumor growth”.
With `Cc1ccc(NC(=O)c2ccc(CN3CCN(C)CC3)cc2)cc1Nc1nccc(-c2cccnc2)n1` [imatinib], in [8], the “patients in whom recurrence was prevented” value was 7/7.
